Results on two compounds are retold here after publication PMC11444863 (Bioscience of Microbiota, Food and Health, 2024).

The target in the test is T1, Hyaluronidase from bovine testes (Bos taurus, UniProt Q2YDK3).
T1 sequence (Q2YDK3 36-553): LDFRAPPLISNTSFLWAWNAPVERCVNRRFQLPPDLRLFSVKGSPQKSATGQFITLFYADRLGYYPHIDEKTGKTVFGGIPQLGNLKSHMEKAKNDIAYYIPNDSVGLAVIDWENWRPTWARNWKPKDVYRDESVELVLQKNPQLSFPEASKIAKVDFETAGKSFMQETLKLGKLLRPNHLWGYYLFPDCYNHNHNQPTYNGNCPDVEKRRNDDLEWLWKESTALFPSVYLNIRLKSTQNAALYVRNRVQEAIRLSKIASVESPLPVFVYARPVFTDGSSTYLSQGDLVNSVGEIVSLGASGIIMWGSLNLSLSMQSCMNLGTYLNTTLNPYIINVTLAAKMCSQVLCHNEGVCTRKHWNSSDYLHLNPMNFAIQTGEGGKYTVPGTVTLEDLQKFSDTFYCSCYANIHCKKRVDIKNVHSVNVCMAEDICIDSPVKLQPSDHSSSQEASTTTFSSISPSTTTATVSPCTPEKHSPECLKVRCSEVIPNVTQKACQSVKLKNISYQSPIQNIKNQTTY
Description: colorimetric hyaluronidase inhibition assay. The class given is biochemical.

By IC50 is commonly meant the concentration at which inhibition is half-maximal. A high value points to lower potency. As to `O=C(O)CCC(=O)C(=O)O` [AKG, α-ketoglutarate], it took 2820 ± 38 µM to reach half-maximal inhibition (IC50).

`O=C(O)c1cc(=O)c2c(OCC(O)COc3cccc4oc(C(=O)O)cc(=O)c34)cccc2o1` [DSCG, disodium cromoglycate] displayed a half-maximal inhibitory concentration (IC50) of 360 ± 41 µM. Against the preceding compound, the IC50 is about 7.8-fold lower.
